We go through four compounds from patent US20210308096A1, “COMPOSITION FOR PREVENTING OR TREATING PRURITUS” (INDUSTRIAL COOPERATION FOUNDATION CHONBUK NATIONAL …, priority 2017, published 2021).

Molecules are shown by their SMILES.

What all share (format): in vivo, BALB/c mice
Test [1] concerns histamine-induced pruritus. As to the kind of experiment: Histamine-induced pruritus, number of scratching actions (MicroAct). The following applies: mice; 1 μM and 10 μM injected subcutaneously together with 100 μg histamine; counted for 1 hour; p<0.01 versus histamine-treated group; FIG. 1. How it is done: (§1) Six-week-old, specific-pathogen-free male BALB/c mice were purchased from Orient Bio Korea Inc. (Gapyeong, Gyeonggi-do, Korea) and housed in a laminar flow cabinet. They were provided with standard solid chows ad libitum. At the onset of the test, the mice were 7-8 weeks old. All animal care and use were performed in accordance with the protocol of the Institutional Animal Care and Use Committee of the Chonbuk National University Medical School. Isoflavone-based compounds genistein, daidzein, glycitein and equol were purchased from Sigma. They were dissolved in DMSO and diluted with distilled water. […] Histamine, chloroquine and DNCB were also purchased from Sigma. Pruritus was induced by subcutaneously injecting histamine and chloroquine to the mice. Specifically, 0.1 mL of 2 mg/mL histamine and 4 mg/mL chloroquine were injected respectively. Pruritus was evaluated using MicroAct (Neuroscience, Inc., Tokyo, Japan) according to the method established by the company. The mouse was anesthetized and a magnet piece was inserted into the foot skin of the left hind leg. The mouse was put in a chamber surrounded by a coil and the number of scratching actions was recorded by a computer based on the electrical field generated by the scratching. The experimental conditions of the MicroAct were set as follows. Threshold p-p limit, 0.125 V; threshold minimum duration, 0.2 s; maximum amplitude range, 0.5 V; minimum amplitude range, 0.05 V; maximum frequency, 20 Hz; minimum frequency, 5 Hz. Recording was made only for 3 or more consecutive scratching actions. All the experiments were performed for at least 3 times and 2-3 mice were used per each group. Statistical data were represented by means and standard deviations. Statistical comparison was conducted by one-way ANOVA and the Fisher test. Significant difference between the groups was determined by the unpaired Student's t-test. The significant level of the p-value was less than 0.05. In order to measure the effect of inhibiting histamine-induced pruritus of genistein, daidzein, glycitein and equol, 100 μg of histamine was dissolved in 0.1 mL of physiological saline and injected subcutaneously to induce pruritus. After injecting each of genistein, daidzein, glycitein and equol at 1 μM and 10 μM together with the histamine, the number of scratching actions was counted for 1 hour.

Test [2] deals with chloroquine-induced pruritus. As to the kind of experiment: Chloroquine-induced pruritus, number of scratching actions (MicroAct). The conditions noted are these: mice; 1 μM and 10 μM injected subcutaneously together with 200 μg chloroquine; counted for 1 hour; p<0.01 versus chloroquine-treated group; FIG. 2. How it is done: as §1, with “inhibiting chloroquine-induced” for “inhibiting histamine-induced”, “equol, 200” for “equol, 100”, “of chloroquine” for “of histamine”, “the chloroquine,” for “the histamine,”

For the next test, the system named is DNCB-induced pruritus. As to the kind of experiment: DNCB-induced pruritus, number of scratching actions (MicroAct). The following applies: DNCB-sensitized mice; 1 μM or 10 μM applied on the right ear with DNCB; counted for 1 hour; p<0.01 versus DNCB-treated group; FIG. 3. How it is done: Six-week-old, specific-pathogen-free male BALB/c mice were purchased from Orient Bio Korea Inc. (Gapyeong, Gyeonggi-do, Korea) and housed in a laminar flow cabinet. They were provided with standard solid chows ad libitum. At the onset of the test, the mice were 7-8 weeks old. All animal care and use were performed in accordance with the protocol of the Institutional Animal Care and Use Committee of the Chonbuk National University Medical School. Isoflavone-based compounds genistein, daidzein, glycitein and equol were purchased from Sigma. They were dissolved in DMSO and diluted with distilled water. […] Histamine, chloroquine and DNCB were also purchased from Sigma. Pruritus was induced with DNCB. Specifically, after removing hair from the right ear of the mouse, 20 μL of 1% DNCB dissolved in a mixture of olive oil and ethanol (1:4) was applied for sensitization. 10 μL of 0.5% DNCB was applied on the same ear 7 days later (Exp. Dermatol., 2002, 11:285-291). Pruritus was evaluated using MicroAct (Neuroscience, Inc., Tokyo, Japan) according to the method established by the company. The mouse was anesthetized and a magnet piece was inserted into the foot skin of the left hind leg. The mouse was put in a chamber surrounded by a coil and the number of scratching actions was recorded by a computer based on the electrical field generated by the scratching. The experimental conditions of the MicroAct were set as follows. Threshold p-p limit, 0.125 V; threshold minimum duration, 0.2 s; maximum amplitude range, 0.5 V; minimum amplitude range, 0.05 V; maximum frequency, 20 Hz; minimum frequency, 5 Hz. Recording was made only for 3 or more consecutive scratching actions. All the experiments were performed for at least 3 times and 2-3 mice were used per each group. Statistical data were represented by means and standard deviations. Statistical comparison was conducted by one-way ANOVA and the Fisher test. Significant difference between the groups was determined by the unpaired Student's t-test. The significant level of the p-value was less than 0.05. In order to measure the effect of inhibiting DNCB-induced pruritus of genistein, daidzein, glycitein and equol, 20 μL of a 1% DNCB solution was applied on the right ear of the mouse for 7 days for sensitization. 10 μL of 0.5% DNCB was applied on the same ear 7 days later, 1 μM or 10 μM genistein, daidzein, glycitein or equol and 1% DNCB dissolved in physiological saline was applied on the right ear (physiological saline was applied for a negative control group) and the number of scratching actions was counted for 1 hour.

For test [3], the system named is SLIGRL-induced pruritus (agonist for the protease activated receptor 2). Put plainly: SLIGRL-induced pruritus, number of scratching actions (MicroAct). The following applies: mice; 1 μM and 10 μM injected subcutaneously together with 20 μg SLIGRL; counted for 1 hour; p<0.05 versus SLIGRL-treated group; FIG. 4. How it is done:
Six-week-old, specific-pathogen-free male BALB/c mice were purchased from Orient Bio Korea Inc. (Gapyeong, Gyeonggi-do, Korea) and housed in a laminar flow cabinet. They were provided with standard solid chows ad libitum. At the onset of the test, the mice were 7-8 weeks old. All animal care and use were performed in accordance with the protocol of the Institutional Animal Care and Use Committee of the Chonbuk National University Medical School. Isoflavone-based compounds genistein, daidzein, glycitein and equol were purchased from Sigma. They were dissolved in DMSO and diluted with distilled water. […] Histamine, chloroquine and DNCB were also purchased from Sigma. Pruritus was induced with SLIGRL. Specifically, 20 μg of SLIGRL was dissolved in 0.1 mL of physiological saline and injected subcutaneously to induce pruritus. Pruritus was evaluated using MicroAct (Neuroscience, Inc., Tokyo, Japan) according to the method established by the company. The mouse was anesthetized and a magnet piece was inserted into the foot skin of the left hind leg. The mouse was put in a chamber surrounded by a coil and the number of scratching actions was recorded by a computer based on the electrical field generated by the scratching. The experimental conditions of the MicroAct were set as follows. Threshold p-p limit, 0.125 V; threshold minimum duration, 0.2 s; maximum amplitude range, 0.5 V; minimum amplitude range, 0.05 V; maximum frequency, 20 Hz; minimum frequency, 5 Hz. Recording was made only for 3 or more consecutive scratching actions. All the experiments were performed for at least 3 times and 2-3 mice were used per each group. Statistical data were represented by means and standard deviations. Statistical comparison was conducted by one-way ANOVA and the Fisher test. Significant difference between the groups was determined by the unpaired Student's t-test. The significant level of the p-value was less than 0.05. In order to measure the effect of inhibiting pruritus induced by SLIGRL, which is an agonist for the protease activated receptor 2, of genistein, daidzein, glycitein and equol, 20 μg of SLIGRL was dissolved in 0.1 mL of physiological saline and injected subcutaneously to induce pruritus. After injecting each of genistein, daidzein, glycitein and equol at 1 μM and 10 μM together with the SLIGRL, the number of scratching actions was counted for 1 hour.

Another test deals with TSLP-induced pruritus. Put plainly: TSLP-induced pruritus, number of scratching actions (MicroAct). The conditions noted are these: mice; 1 μM and 10 μM injected subcutaneously together with 0.67 μg TSLP; counted for 1 hour; p<0.05 versus TSLP-treated group; FIG. 5. On the procedure:
Six-week-old, specific-pathogen-free male BALB/c mice were purchased from Orient Bio Korea Inc. (Gapyeong, Gyeonggi-do, Korea) and housed in a laminar flow cabinet. They were provided with standard solid chows ad libitum. At the onset of the test, the mice were 7-8 weeks old. All animal care and use were performed in accordance with the protocol of the Institutional Animal Care and Use Committee of the Chonbuk National University Medical School. Isoflavone-based compounds genistein, daidzein, glycitein and equol were purchased from Sigma. They were dissolved in DMSO and diluted with distilled water. […] Histamine, chloroquine and DNCB were also purchased from Sigma. Pruritus was induced with TSLP. 0.67 μg of TSLP was dissolved in 0.1 mL of physiological saline and injected subcutaneously to induce pruritus. Pruritus was evaluated using MicroAct (Neuroscience, Inc., Tokyo, Japan) according to the method established by the company. The mouse was anesthetized and a magnet piece was inserted into the foot skin of the left hind leg. The mouse was put in a chamber surrounded by a coil and the number of scratching actions was recorded by a computer based on the electrical field generated by the scratching. The experimental conditions of the MicroAct were set as follows. Threshold p-p limit, 0.125 V; threshold minimum duration, 0.2 s; maximum amplitude range, 0.5 V; minimum amplitude range, 0.05 V; maximum frequency, 20 Hz; minimum frequency, 5 Hz. Recording was made only for 3 or more consecutive scratching actions. All the experiments were performed for at least 3 times and 2-3 mice were used per each group. Statistical data were represented by means and standard deviations. Statistical comparison was conducted by one-way ANOVA and the Fisher test. Significant difference between the groups was determined by the unpaired Student's t-test. The significant level of the p-value was less than 0.05. In order to measure the effect of inhibiting thymic stromal lymphopoietin (TSLP)-induced pruritus of genistein, daidzein, glycitein and equol, 0.67 μg of TSLP solution dissolved in 0.1 mL of physiological saline and injected subcutaneously to induce pruritus. After injecting each of genistein, daidzein, glycitein and equol at 1 μM and 10 μM together with the TSLP, the number of scratching actions was counted for 1 hour.

On to `O=c1c(-c2ccc(O)cc2)coc2cc(O)cc(O)c12` [Genistein, genistein], for which the “Effect of inhibiting histamine-induced pruritus (number of scratching actions)” value in test [1] is “significantly inhibited”. The “Effect of inhibiting chloroquine-induced pruritus (number of scratching actions)” value in test [2] is given as “significantly inhibited”. In addition, the “Effect of inhibiting DNCB-induced pruritus (number of scratching actions)” value in the test on DNCB-induced pruritus is on record as “significantly inhibited”. Besides, the “Effect of inhibiting SLIGRL-induced pruritus (number of scratching actions)” value in test [3] was “significantly inhibited”. The “Effect of inhibiting TSLP-induced pruritus (number of scratching actions)” value in the test with TSLP-induced pruritus is “significantly inhibited”.
On to `O=c1c(-c2ccc(O)cc2)coc2cc(O)ccc12` [daidzein], for which the “Effect of inhibiting histamine-induced pruritus (number of scratching actions)” value in test [1] is recorded as “significantly inhibited”. The “Effect of inhibiting chloroquine-induced pruritus (number of scratching actions)” value in test [2] was “significantly inhibited”. Also, in the test on DNCB-induced pruritus, the “Effect of inhibiting DNCB-induced pruritus (number of scratching actions)” value was “significantly inhibited”. In addition, in test [3], the “Effect of inhibiting SLIGRL-induced pruritus (number of scratching actions)” value was “significantly inhibited”. Also, the “Effect of inhibiting TSLP-induced pruritus (number of scratching actions)” value with TSLP-induced pruritus was “significantly inhibited”.
Turning to `Oc1ccc([C@H]2COc3cc(O)ccc3C2)cc1` [equol], the “Effect of inhibiting histamine-induced pruritus (number of scratching actions)” value in test [1] is “did not inhibit”. Moreover, the “Effect of inhibiting chloroquine-induced pruritus (number of scratching actions)” value in test [2] was “did not inhibit”. For the same compound, the “Effect of inhibiting DNCB-induced pruritus (number of scratching actions)” value with DNCB-induced pruritus was “did not inhibit”. Besides, the “Effect of inhibiting SLIGRL-induced pruritus (number of scratching actions)” value in test [3] was “did not inhibit”. Also, the “Effect of inhibiting TSLP-induced pruritus (number of scratching actions)” value with TSLP-induced pruritus was “did not inhibit”.
Take `COc1cc2c(=O)c(-c3ccc(O)cc3)coc2cc1O` [glycitein]: in test [1], the “Effect of inhibiting histamine-induced pruritus (number of scratching actions)” value is listed as “did not inhibit”. Also, in test [2], the “Effect of inhibiting chloroquine-induced pruritus (number of scratching actions)” value was “did not inhibit”. Moreover, the “Effect of inhibiting DNCB-induced pruritus (number of scratching actions)” value with DNCB-induced pruritus is “did not inhibit”. Also, the “Effect of inhibiting SLIGRL-induced pruritus (number of scratching actions)” value in test [3] is “did not inhibit”. Further, the “Effect of inhibiting TSLP-induced pruritus (number of scratching actions)” value in the test with TSLP-induced pruritus was “did not inhibit”.
